Results published in patent US20240409585A1, “MACROCYCLIC IMMUNOMODULATORS” (priority 2021, published 2024).
Bridge positions count the residues as written; N and C are the ends. Square brackets hold non-standard residues; d marks the D form. Peptide text beside a SMILES is read from it. * marks the point of attachment. Tyr(3-NO2) = N[C@@H](Cc1ccc(O)c([N+](=O)[O-])c1)C(=O)O; Phe(4-COOH) = N[C@@H](Cc1ccc(C(=O)O)cc1)C(=O)O; Bip = N[C@@H](Cc1ccc(-c2ccccc2)cc1)C(=O)O; Bta = N[C@@H](Cc1csc2ccccc12)C(=O)O; 3Pal = N[C@@H](Cc1cccnc1)C(=O)O; 4Pal = N[C@@H](Cc1ccncc1)C(=O)O; Carboxymethyl = O=C(O)C*; NMeA = CN[C@@H](C)C(=O)O; Orn = NCCC[C@H](N)C(=O)O; Dab = NCC[C@H](N)C(=O)O

What follows are compounds tested against T1, PE-labeled human PD-L1-Ig binding to Jurkat cell line over-expressing human PD-1 (Jurkat-PD-1) (Homo sapiens, UniProt Q15116) (assay: Jurkat-PD-1 Cell Binding High-Content Screening Assay (CBA): Method 1). Details: Jurkat-hPD-1 cells, PE-labeled PD-L1-Ig 20 nM final; read-out: Jurkat HPDL1 PD1 IC50 (uM) (Method 1).
T1 construct: expressed in transfected cells; host or cells: Jurkat
T1 sequence (Q15116 25-288): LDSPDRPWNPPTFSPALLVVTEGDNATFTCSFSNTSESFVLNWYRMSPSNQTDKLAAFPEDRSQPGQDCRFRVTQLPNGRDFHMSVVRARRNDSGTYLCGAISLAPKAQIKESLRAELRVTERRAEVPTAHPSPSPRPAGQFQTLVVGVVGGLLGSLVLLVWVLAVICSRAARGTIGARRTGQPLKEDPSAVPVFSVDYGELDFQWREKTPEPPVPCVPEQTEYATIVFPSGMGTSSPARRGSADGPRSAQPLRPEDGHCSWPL

Row | IC50 | Compound
1 | 0.07 µM | CC(C)C[C@@H]1NC(=O)[C@H](CCN)NC(=O)[C@@H](CC(C)C)NC(=O)[C@H](C)N(C)C(=O)[C@H](CCCNC(=N)N)NC(=O)[C@H](Cc2ccc(-c3ccccc3)cc2)NC(=O)[C@H](C(C)C)NC(=O)[C@H](Cc2c[nH]c3ccccc23)NC(=O)[C@H](CC(=O)O)NC(=O)[C@H](Cc2ccc(OCC(=O)O)cc2)NC(=O)[C@H](CC(N)=O)NC(=O)CSC[C@@H](C(=O)N[C@@H](C)C(N)=O)NC(=O)[C@H]([C@@H](C)O)NC(=O)[C@H](C(C)C)NC1=O [Compound 1138] ({CH2CO}-NY(Carboxymethyl)DWV[Bip]R[NMeA][dL][Dab]LVTCA-NH2; thioether N-14)
2 | 0.06 µM | CC(C)C[C@@H]1NC(=O)[C@H](CCCN)NC(=O)[C@@H](CC(C)C)NC(=O)[C@H](C)N(C)C(=O)[C@H](CCCNC(=N)N)NC(=O)[C@H](Cc2ccc(-c3ccccc3)cc2)NC(=O)[C@H](C(C)C)NC(=O)[C@H](Cc2c[nH]c3ccccc23)NC(=O)[C@H](CC(=O)O)NC(=O)[C@H](Cc2ccc(C(=O)O)cc2)NC(=O)[C@H](CC(N)=O)NC(=O)CSC[C@@H](C(=O)N[C@@H](C)C(N)=O)NC(=O)[C@H]([C@@H](C)O)NC(=O)[C@H](C(C)C)NC1=O [Compound 1139] ({CH2CO}-N[Phe(4-COOH)]DWV[Bip]R[NMeA][dL][Orn]LVTCA-NH2; thioether N-14)
3 | 0.03 µM | CC(C)C[C@@H]1NC(=O)[C@H](CCCN)NC(=O)[C@@H](CC(C)C)NC(=O)[C@H](C)N(C)C(=O)[C@H](CCCNC(=N)N)NC(=O)[C@H](Cc2ccc(-c3ccccc3)cc2)NC(=O)[C@H](C(C)C)NC(=O)[C@H](Cc2c[nH]c3ccccc23)NC(=O)[C@H](CC(=O)O)NC(=O)[C@H](Cc2ccc(OCC(=O)O)cc2)NC(=O)[C@H](Cc2ccccc2)NC(=O)CSC[C@@H](C(=O)N[C@@H](C)C(N)=O)NC(=O)[C@H]([C@@H](C)O)NC(=O)[C@H](C(C)C)NC1=O [Compound 1140] ({CH2CO}-FY(Carboxymethyl)DWV[Bip]R[NMeA][dL][Orn]LVTCA-NH2; thioether N-14)
4 | 0.04 µM | CC(C)C[C@@H]1NC(=O)[C@H](CCCNC(=N)N)NC(=O)[C@@H](CC(C)C)NC(=O)[C@H](C)N(C)C(=O)[C@H](CCC(=O)O)NC(=O)[C@H](Cc2ccc(-c3ccccc3)cc2)NC(=O)[C@H](C(C)C)NC(=O)[C@H](Cc2c[nH]c3ccccc23)NC(=O)[C@H](CC(=O)O)NC(=O)[C@H](Cc2ccc(O)cc2)NC(=O)[C@H](Cc2ccccc2)NC(=O)CSC[C@@H](C(=O)N[C@@H](C)C(N)=O)NC(=O)[C@H]([C@@H](C)O)NC(=O)[C@H](C(C)C)NC1=O [Compound 1141] ({CH2CO}-FYDWV[Bip]E[NMeA][dL]RLVTCA-NH2; thioether N-14)
5 | 0.24 µM | CC(C)C[C@@H]1NC(=O)[C@H](CCN)NC(=O)[C@@H](CC(C)C)NC(=O)[C@H](C)N(C)C(=O)[C@H](CCCNC(=N)N)NC(=O)[C@H](Cc2ccc(-c3ccccc3)cc2)NC(=O)[C@H](C(C)C)NC(=O)[C@H](Cc2c[nH]c3ccccc23)NC(=O)[C@H](CC(=O)O)NC(=O)[C@H](Cc2cnc[nH]2)NC(=O)[C@H](Cc2cnc[nH]2)NC(=O)CSC[C@@H](C(=O)N[C@@H](C)C(N)=O)NC(=O)[C@H]([C@@H](C)O)NC(=O)[C@H](C(C)C)NC1=O [Compound 1142] ({CH2CO}-HHDWV[Bip]R[NMeA][dL][Dab]LVTCA-NH2; thioether N-14)
6 | 0.24 µM | CC(C)C[C@@H]1NC(=O)[C@H](CCN)NC(=O)[C@H](Cc2csc3ccccc23)NC(=O)[C@H](C)N(C)C(=O)[C@H](CCC(=O)O)NC(=O)[C@H](Cc2ccc(-c3ccccc3)cc2)NC(=O)[C@H](C(C)C)NC(=O)[C@H](Cc2c[nH]c3ccccc23)NC(=O)[C@H](CC(=O)O)NC(=O)[C@H](Cc2ccc(O)cc2)NC(=O)[C@H](Cc2ccccc2)NC(=O)CSC[C@@H](C(=O)N[C@@H](C)C(N)=O)NC(=O)[C@H]([C@@H](C)O)NC(=O)[C@H](C(C)C)NC1=O [Compound 1143] ({CH2CO}-FYDWV[Bip]E[NMeA][Bta][Dab]LVTCA-NH2; thioether N-14)
7 | 0.05 µM | CC(C)C[C@@H]1NC(=O)[C@H](CCCN)NC(=O)[C@@H](CC(C)C)NC(=O)[C@H](C)N(C)C(=O)[C@H](CCCNC(=N)N)NC(=O)[C@H](Cc2ccc(-c3ccccc3)cc2)NC(=O)[C@H](C(C)C)NC(=O)[C@H](Cc2c[nH]c3ccccc23)NC(=O)[C@H](CC(=O)O)NC(=O)[C@H](Cc2ccc(O)cc2)NC(=O)[C@H](Cc2cnc[nH]2)NC(=O)CSC[C@@H](C(=O)N[C@@H](C)C(N)=O)NC(=O)[C@H]([C@@H](C)O)NC(=O)[C@H](C(C)C)NC1=O [Compound 1144] ({CH2CO}-HYDWV[Bip]R[NMeA][dL][Orn]LVTCA-NH2; thioether N-14)
8 | 0.02 µM | CC(C)C[C@@H]1NC(=O)[C@H](CCN)NC(=O)[C@@H](CC(C)C)NC(=O)[C@H](C)N(C)C(=O)[C@H](CCCNC(=N)N)NC(=O)[C@H](Cc2ccc(-c3ccccc3)cc2)NC(=O)[C@H](C(C)C)NC(=O)[C@H](Cc2c[nH]c3ccccc23)NC(=O)[C@H](CC(=O)O)NC(=O)[C@H](Cc2ccc(O)c([N+](=O)[O-])c2)NC(=O)[C@H](Cc2ccccc2)NC(=O)CSC[C@@H](C(=O)N[C@@H](C)C(N)=O)NC(=O)[C@H]([C@@H](C)O)NC(=O)[C@H](C(C)C)NC1=O [Compound 1145] ({CH2CO}-F[Tyr(3-NO2)]DWV[Bip]R[NMeA][dL][Dab]LVTCA-NH2; thioether N-14)
9 | 0.06 µM | CC(C)C[C@@H]1NC(=O)[C@H](CCN)NC(=O)[C@@H](CC(C)C)NC(=O)[C@H](C)N(C)C(=O)[C@H](CCCNC(=N)N)NC(=O)[C@H](Cc2ccc(-c3ccccc3)cc2)NC(=O)[C@H](C(C)C)NC(=O)[C@H](Cc2c[nH]c3ccccc23)NC(=O)[C@H](CC(=O)O)NC(=O)[C@H](Cc2ccncc2)NC(=O)[C@H](CC(N)=O)NC(=O)CSC[C@@H](C(=O)N[C@@H](C)C(N)=O)NC(=O)[C@H]([C@@H](C)O)NC(=O)[C@H](C(C)C)NC1=O [Compound 1146] ({CH2CO}-N[4Pal]DWV[Bip]R[NMeA][dL][Dab]LVTCA-NH2; thioether N-14)
10 | 0.02 µM | CC(C)C[C@@H]1NC(=O)[C@H](CCN)NC(=O)[C@@H](CC(C)C)NC(=O)[C@H](C)N(C)C(=O)[C@H](CCCNC(=N)N)NC(=O)[C@H](Cc2ccc(-c3ccccc3)cc2)NC(=O)[C@H](C(C)C)NC(=O)[C@H](Cc2c[nH]c3ccccc23)NC(=O)[C@H](CC(=O)O)NC(=O)[C@H](Cc2ccncc2)NC(=O)[C@H](Cc2cccnc2)NC(=O)CSC[C@@H](C(=O)N[C@@H](C)C(N)=O)NC(=O)[C@H]([C@@H](C)O)NC(=O)[C@H](C(C)C)NC1=O [Compound 1147] ({CH2CO}-[3Pal][4Pal]DWV[Bip]R[NMeA][dL][Dab]LVTCA-NH2; thioether N-14)
11 | 0.05 µM | CC(C)C[C@@H]1NC(=O)[C@H](CCCN)NC(=O)[C@@H](CC(C)C)NC(=O)[C@H](C)N(C)C(=O)[C@H](CCCNC(=N)N)NC(=O)[C@H](Cc2ccc(-c3ccccc3)cc2)NC(=O)[C@H](C(C)C)NC(=O)[C@H](Cc2c[nH]c3ccccc23)NC(=O)[C@H](CC(=O)O)NC(=O)[C@H](Cc2ccc(OCC(=O)O)cc2)NC(=O)[C@H](Cc2cnc[nH]2)NC(=O)CSC[C@@H](C(=O)N[C@@H](C)C(N)=O)NC(=O)[C@H]([C@@H](C)O)NC(=O)[C@H](C(C)C)NC1=O [Compound 1148] ({CH2CO}-HY(Carboxymethyl)DWV[Bip]R[NMeA][dL][Orn]LVTCA-NH2; thioether N-14)
12 | 0.07 µM | CC(C)C[C@@H]1NC(=O)[C@H](CCCN)NC(=O)[C@@H](CC(C)C)NC(=O)[C@H](C)N(C)C(=O)[C@H](CCCNC(=N)N)NC(=O)[C@H](Cc2ccc(-c3ccccc3)cc2)NC(=O)[C@H](C(C)C)NC(=O)[C@H](Cc2c[nH]c3ccccc23)NC(=O)[C@H](CC(=O)O)NC(=O)[C@H](Cc2ccc(C(=O)O)cc2)NC(=O)[C@H](Cc2cnc[nH]2)NC(=O)CSC[C@@H](C(=O)N[C@@H](C)C(N)=O)NC(=O)[C@H]([C@@H](C)O)NC(=O)[C@H](C(C)C)NC1=O [Compound 1149] ({CH2CO}-H[Phe(4-COOH)]DWV[Bip]R[NMeA][dL][Orn]LVTCA-NH2; thioether N-14)
13 | 0.05 µM | CC(C)C[C@@H]1NC(=O)[C@H](CCN)NC(=O)[C@@H](CC(C)C)NC(=O)[C@H](C)N(C)C(=O)[C@H](CCCNC(=N)N)NC(=O)[C@H](Cc2ccc(-c3ccccc3)cc2)NC(=O)[C@H](C(C)C)NC(=O)[C@H](Cc2c[nH]c3ccccc23)NC(=O)[C@H](CC(=O)O)NC(=O)[C@H](Cc2ccc(OCC(=O)O)cc2)NC(=O)[C@H](Cc2cnc[nH]2)NC(=O)CSC[C@@H](C(=O)N[C@@H](C)C(N)=O)NC(=O)[C@H]([C@@H](C)O)NC(=O)[C@H](C(C)C)NC1=O [Compound 1150] ({CH2CO}-HY(Carboxymethyl)DWV[Bip]R[NMeA][dL][Dab]LVTCA-NH2; thioether N-14)
14 | 0.04 µM | CC(C)C[C@@H]1NC(=O)[C@H](CCN)NC(=O)[C@@H](CC(C)C)NC(=O)[C@H](C)N(C)C(=O)[C@H](CCCNC(=N)N)NC(=O)[C@H](Cc2ccc(-c3ccccc3)cc2)NC(=O)[C@H](C(C)C)NC(=O)[C@H](Cc2c[nH]c3ccccc23)NC(=O)[C@H](CC(=O)O)NC(=O)[C@H](Cc2ccc(C(=O)O)cc2)NC(=O)[C@H](Cc2cnc[nH]2)NC(=O)CSC[C@@H](C(=O)N[C@@H](C)C(N)=O)NC(=O)[C@H]([C@@H](C)O)NC(=O)[C@H](C(C)C)NC1=O [Compound 1151] ({CH2CO}-H[Phe(4-COOH)]DWV[Bip]R[NMeA][dL][Dab]LVTCA-NH2; thioether N-14)
15 | 0.08 µM | CC(C)C[C@@H]1NC(=O)[C@H](CCCN)NC(=O)[C@@H](CC(C)C)NC(=O)[C@H](C)N(C)C(=O)[C@H](CCCNC(=N)N)NC(=O)[C@H](Cc2ccc(-c3ccccc3)cc2)NC(=O)[C@H](C(C)C)NC(=O)[C@H](Cc2c[nH]c3ccccc23)NC(=O)[C@H](CC(=O)O)NC(=O)[C@H](Cc2ccc(OCC(=O)O)cc2)NC(=O)[C@H](CC(N)=O)NC(=O)CSC[C@@H](C(=O)N[C@@H](C)C(N)=O)NC(=O)[C@H]([C@@H](C)O)NC(=O)[C@H](C(C)C)NC1=O [Compound 1152] ({CH2CO}-NY(Carboxymethyl)DWV[Bip]R[NMeA][dL][Orn]LVTCA-NH2; thioether N-14)
